Results on 3 molecules are retold here after publication PMC10383195, “Interactions of the Kv1.1 Channel with Peptide Pore Blockers: A Fluorescent Analysis on Mammalian Cells” (Membranes, 2023).

Numbered stars: 1 amine (or outer) side, 2 acyl side, 3 side chain; on linkers, the order of the positions; unused ones are H or OH. Bridge positions count the residues as written; N and C are the ends. Square brackets hold non-standard residues; d marks the D form. Peptide text beside a SMILES is read from it. * marks the point of attachment. X1 = N=c1ccc2c(-c3ccccc3C(=O)*)c3ccc(N)c(S(=O)(=O)O)c3oc-2c1S(=O)(=O)O; NMeGABA = CN(CCCC(=O)[*:2])[*:1]

For experiment [1], the target named is T1, K-Kv1.1 channel (hKv1.1S369T with mKate2) (Homo sapiens, UniProt Q09470, S369T).
T1 construct: these fragments were combined and amplified using terminal primers to obtain the whole mutated gene; expressed in transfected cells; host or cells: mouse neuroblastoma Neuro2a cells, transient transfection with pmKate2-KCNA1m1
Kind of experiment: Whole-cell patch-clamp of currents through K-Kv1.1 in Neuro2a cells. The format is cell-based. The protocol:
Membrane ion currents through the K-Kv1.1 channel were recorded at room temperature by the patch-clamp technique using the standard whole-cell configuration as described earlier.
Briefly, Neuro2a cells attached to coverslips (10 mm in diameter) pre-coated with poly-D-lysine were immersed in a buffer (140 mM NaCl, 2.8 mM KCl, 2 mM MgCl2, 2 mM CaCl2, 10 mM glucose, 10 mM HEPES, pH 7.4) and perfused continuously. Micropipettes with a tip resistance of 6–8 MΩ were filled with a pipette solution containing 140 mM KCl, 6 mM CaCl2, 2 mM MgCl2, 2 mM MgATP, 0.4 mM NaGTP, 10 mM HEPES, 20 mM BAPTA/KOH (pH 7.3). The patches were routinely held at a holding potential of −40 mV. The potential was changed from −70 to +70 mV (20 mV step) using 200 ms pulses, which were applied incrementally with an interval of 20 s. Finally, the potential returned to the holding potential.
Cells were measured 24–48 h after transfection. The cells were selected by K-Kv1.1 fluorescence. The cells were analyzed if their input resistance was more than 350 MΩ. The currents were recorded using an EPC-10 amplifier (HEKA Elektronik, Stuttgart, Germany).
[…] The toxins were dissolved in a complete medium.
The measured concentration dependence of current inhibition through the K-Kv1.1 channel by A-HgTx was analyzed with the following equation:Irel(L) = 100/(1 + (IC50/L)^h) (1) where Irel is a decrease in current (%), L is the concentration of A-HgTx, IC50 is the concentration of A-HgTx that induces a 50% decrease in current, and h is the Hill coefficient.
For orientation: Patch clamp records ionic current or voltage across a cell membrane.

Experiment [2] addresses Kv1.3 channel. The settings on record: read-out: Kd of A-HgTx with Kv1.3 channel; cited from earlier work.
The test system of another experiment is Kv1.1 channel. The settings on record: concentrations up to 25 nM; cited from earlier work. The source says: Ce1 is a member of the α-KTx2 subfamily of scorpion toxins and is a close homolog of the well-studied toxins HgTx1, MgTx, and noxiustoxin (NTx, Table 3). […] Thus, Ce1 surpasses the closest homolog NTx in affinity for Kv1.1, but inferiors MgTx and especially HgTx in this characteristic (Table 2).

Experiment [3] concerns the target T2, mKate2-tagged human Kv1.1 (S369T) channel (K-Kv1.1) (Homo sapiens, UniProt Q09470, S369T).
T2 construct: these fragments were combined and amplified using terminal primers to obtain the whole mutated gene; expressed in transfected cells; host or cells: mouse neuroblastoma Neuro2a cells, transient transfection with pmKate2-KCNA1m1
In words: Competitive binding of peptide pore blocker and A-HgTx to K-Kv1.1 on the plasma membrane of Neuro2a cells (confocal microscopy). The note with it: A-HgTx (2 nM) displacement compared in complete medium, Na+ and K+ buffers. The protocol:
To analyze the binding of A-HgTx, A-HgTx (0.25–4 nM) was added to cells in a complete medium for 60 min. To analyze competitive binding, A-HgTx (2 nM), together with the selected peptide (0.05–160 nM), was added to cells in a complete medium for 60 min.
To compare ligand binding with closed and open channels, ligands were added to cells (60 min, 37 °C) in a buffer (20 mM HEPES pH 7.4, 0.9 mM CaCl2, 0.5 mM MgCl2, 0.1% BSA) supplemented with 4 mM KCl and 150 mM NaCl (Na^+ buffer) or with 150 mM KCl (K^+ buffer).
The fluorescence of the K-Kv1.1 and K-Kv1.1wt channels was excited at 561 nm and detected in the 650–700 nm region. A-HgTx fluorescence was excited at 488 nm and detected in the 495–535 nm region. Sequential scanning was used to measure the cellular distributions of A-HgTx and mKate2 fluorescence in order to avoid interference of mKate2 fluorescence with cellular autofluorescence excited at 488 nm.
Quantitative analysis of the interaction of A-HgTx with K-Kv1.1 was carried out in accordance with the procedure developed previously for A-HgTx and the fluorescently labeled Kv1.3 channel. Briefly, the regions of interest with K-Kv1.1 on the plasma membrane were selected in the confocal images and used to create binary (0;1) masks that described the membranous distribution of K-Kv1.1. The confocal images of K-Kv1.1 and A-HgTx were multiplied by the corresponding mask, and the average fluorescence intensities of A-HgTx (Ili) and K-Kv1.1 (Ici) corrected for the background signal were calculated for each i-cell. Ratio Ri = Ili/Ici was calculated and averaged over 15–20 cells to obtain the Rav value and the standard deviation.
To analyze the competitive binding of the studied peptide pore blocker and A-HgTx to K-Kv1.1 on the cellular membrane, Rav data were plotted depending on the blocker concentration (C) at the constant A-HgTx concentration (L) and fitted with the following equation:Rav(C) = Rav0/(1 + C/DC50)(3) where DC50 is the blocker concentration displacing 50% of A-HgTx from the complex with K-Kv1.1, and Rav0 is Rav at C = 0.
The apparent dissociation constant (Kap) of the complex between the studied blocker and the K-Kv1.1 channel was calculated using the Cheng–Prusoff equation:Kap = DC50/(1 + L/Kd).(4)
Two independent experiments were performed, and the Kav data were averaged and presented as mean ± SEM. Fifteen to twenty-five treated cell images were the average value for each point on the curves of A-HgTx binding to the K-Kv1.1 channel.

For experiment [4], the system named is Kv1.3 channel. The settings on record: cited from earlier work. As for the experimental part:
Exploring the potential of this analytical system, we have measured the Kap of the complex between the recombinant peptide Ce1 and the Kv1.1 channel (Figure 8c, Table 2) and classified Ce1 as a moderately active ligand of this channel. Toxin Ce1 was found in the venom of the scorpion Centruroides elegans and characterized as a high-affinity pore blocker of the Kv1.3 channel (IC50 = 0.7 nM). Its activity for the Kv1.1 channel was not previously reported.

T1 sequence (Q09470 whole entry S369T, the tested form may be a part): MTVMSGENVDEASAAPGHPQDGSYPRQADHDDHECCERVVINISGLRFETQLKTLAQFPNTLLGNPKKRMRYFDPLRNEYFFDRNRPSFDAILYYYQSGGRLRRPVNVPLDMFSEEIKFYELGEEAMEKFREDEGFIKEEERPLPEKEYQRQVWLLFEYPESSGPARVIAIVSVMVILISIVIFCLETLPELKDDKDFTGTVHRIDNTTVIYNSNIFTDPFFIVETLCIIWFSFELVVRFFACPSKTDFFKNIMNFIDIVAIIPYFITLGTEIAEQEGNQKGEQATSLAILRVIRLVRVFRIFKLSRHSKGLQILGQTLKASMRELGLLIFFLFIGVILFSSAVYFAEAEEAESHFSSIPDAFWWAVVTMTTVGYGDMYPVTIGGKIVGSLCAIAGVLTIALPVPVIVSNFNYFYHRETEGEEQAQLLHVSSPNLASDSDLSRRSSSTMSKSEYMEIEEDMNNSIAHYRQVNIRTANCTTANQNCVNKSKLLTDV
T2 sequence (Q09470 whole entry S369T, the tested form may be a part): as above

For orientation: Kd means the constant that tells how readily two partners part at equilibrium. Consider `CC[C@H](C)[C@@H]1NC(=O)CNC(=O)[C@H](Cc2ccccc2)NC(=O)[C@H](CCC(N)=O)NC(=O)[C@H](C)NC(=O)[C@H](CCCCN)NC(=O)[C@@H]2CSSC[C@@H](C(=O)N[C@@H](Cc3ccc(O)cc3)C(=O)N3CCC[C@H]3C(=O)N[C@@H](Cc3c[nH]cn3)C(=O)O)NC(=O)[C@H](CCCCN)NC(=O)[C@@H]3CSSC[C@H](NC(=O)[C@H](CCC(N)=O)NC(=O)[C@H](CCCCN)NC(=O)[C@@H]4CCCN4C(=O)[C@H](CO)NC(=O)[C@H]([C@@H](C)O)NC(=O)[C@@H](NC(=O)[C@H](CCCCN)NC(=O)[C@@H](NC(=O)[C@H](CC(=O)O)NC(=O)[C@@H](NC(=O)[C@@H](NC(=O)[C@@H](NC(=O)CCCN(C)C(=O)c4ccccc4-c4c5ccc(=N)c(S(=O)(=O)O)c-5oc5c(S(=O)(=O)O)c(N)ccc45)[C@@H](C)O)C(C)C)[C@@H](C)CC)C(C)C)CSSC[C@H](NC(=O)[C@H](CCCCN)NC(=O)[C@H](C)NC(=O)CNC(=O)[C@H](C)NC(=O)[C@H](CCCNC(=N)N)NC1=O)C(=O)N[C@@H](CCSC)C(=O)N[C@@H](CC(N)=O)C(=O)NCC(=O)N[C@@H](CCCCN)C(=O)N3)C(=O)N[C@@H](CC(C)C)C(=O)N1CCC[C@H]1C(=O)N1CCC[C@H]1C(=O)N2` [A-HgTx] (X1-[NMeGABA]TVIDVKCTSPKQCLPPCKAQFGIRAGAKCMNGKCKCYPH-OH; disulfide 8-30, 14-35, 18-37; C-terminus assumed), for which the “decrease in the amplitude of the current through K-Kv1.1” value in experiment [1] (5 nM A-HgTx, applied voltage from −30 to 70 mV) is on record as about 50%. Also, the IC50 in experiment [1] (+50 mV voltage, mean ± SEM (n = 6), SEM, read-out: IC50 (concentration of A-HgTx inhibiting current by 50%)) stood at 4800 ± 200 pM. Besides, the maximum current inhibition entry in experiment [1] (+50 mV, A-HgTx above 15 nM) is on record as “ca. 75%”. Also, the Kd on Kv1.3 channel [2] was 300 ± 130 pM.
Take noxiustoxin [NTx]: the “block of the Kv1.1 channel” value in the experiment with Kv1.1 channel is “does not block”.
For `CC[C@H](C)[C@H](NC(=O)[C@@H](NC(=O)[C@@H](N)[C@@H](C)O)C(C)C)C(=O)N[C@@H](CC(N)=O)C(=O)N[C@H](C(=O)N[C@@H](CCCCN)C(=O)N[C@H]1CSSC[C@@H]2NC(=O)[C@H](CCCCN)NC(=O)[C@H](C)NC(=O)CNC(=O)[C@H](C)NC(=O)[C@H](Cc3c[nH]cn3)NC(=O)[C@@H]3CCCN3C(=O)CNC(=O)[C@H](Cc3ccc(O)cc3)NC(=O)[C@H](CC(C)C)NC(=O)[C@H](CC(=O)O)NC(=O)[C@H](CCCCN)NC(=O)[C@@H]3CSSC[C@@H](C(=O)N[C@@H](Cc4ccc(O)cc4)C(=O)N[C@@H](CC(N)=O)C(=O)N[C@@H](CC(N)=O)C(=O)O)NC(=O)[C@H](CCCCN)NC(=O)[C@H](CSSC[C@H](NC(=O)[C@H](CCC(N)=O)NC(=O)[C@H](CCCCN)NC(=O)[C@@H]4CCCN4C(=O)[C@H](CO)NC(=O)[C@H]([C@@H](C)O)NC1=O)C(=O)N[C@@H](CC(C)C)C(=O)N[C@@H](CCCCN)C(=O)N1CCC[C@H]1C(=O)N3)NC(=O)[C@H](CCCCN)NC(=O)CNC(=O)[C@H](CC(N)=O)NC(=O)[C@H](CCSC)NC2=O)C(C)C` [Ce1] (H-TVINVKCTSPKQCLKPCKDLYGPHAGAKCMNGKCKCYNN-OH; disulfide 7-29, 13-34, 17-36 (inferred); N-terminus and C-terminus assumed), the “effect of channel state (closed or open) on affinity of K-Kv1.1 for the peptide” value in experiment [3] was “does not affect the affinity”. Besides, in the experiment on Kv1.3 channel [4], the IC50 was 700 pM.
